Reference: patent US20230159489A1, “PHD INHIBITOR COMPOUNDS, COMPOSITIONS, AND USE” (Akebia Therapeutics, Inc., priority 2020, published 2023)

Columns and labels:
full-length human PHD3 = target: T1, full-length human PHD3 (Homo sapiens, UniProt Q9H6Z9); test: TR-FRET assay, enzymatic IC50 against PHD3; type: biochemical; also: 35 nM PHD3
T1 construct: 6-His (N); purchased Active Motif 81033; host or cells: E. coli
Source text: Recombinant human PHD3 protein (molecular weight 31.1 kDa) was purchased from Active Motif (Carlsbad, Calif., USA). It was expressed in E. coli as the full-length protein (NCBI accession number NP_071356.1) with an N-terminal 6-His tag (catalog #81033, Lot #24417001).

full-length human PHD2 = full-length human PHD2 (Homo sapiens, UniProt Q9GZT9); test: TR-FRET assay, enzymatic IC50 against PHD2
full-length human PHD2, sequence (Q9GZT9 whole entry): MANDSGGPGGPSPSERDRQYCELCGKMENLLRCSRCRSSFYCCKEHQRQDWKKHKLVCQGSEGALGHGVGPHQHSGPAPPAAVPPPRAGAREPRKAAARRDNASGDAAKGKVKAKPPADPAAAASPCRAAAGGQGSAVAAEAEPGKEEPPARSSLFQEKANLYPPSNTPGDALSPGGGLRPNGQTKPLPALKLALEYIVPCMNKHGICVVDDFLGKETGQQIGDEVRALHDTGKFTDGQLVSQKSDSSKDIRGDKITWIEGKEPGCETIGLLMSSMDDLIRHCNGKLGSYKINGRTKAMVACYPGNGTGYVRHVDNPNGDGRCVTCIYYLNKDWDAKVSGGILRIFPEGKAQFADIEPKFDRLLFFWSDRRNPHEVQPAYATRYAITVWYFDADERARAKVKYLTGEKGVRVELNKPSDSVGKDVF
Source text: Time-resolved fluorescence resonance energy transfer (TR-FRET) assay was utilized to determine the enzymatic half maximal inhibitory concentration (IC50) value of PHD inhibitors against the full-length human prolyl-4-hydroxylase domain (PHD) enzymes, PHD1, PHD2, and PHD3. The TR-FRET assay was developed based on the specific binding of hydroxylated HIF-1α peptide with the complex formed by VHL, EloB and EloC (VBC), to generate a fluorescent signal. Terbium (Tb)-Donor (monoclonal antibody anti-6His-Tb-cryptate Gold) and D2-acceptor (streptavidin [SA]-D2) of TR-FRET are linked to the VBC complex and to HIF-1α peptide, respectively. The VBC complex binds specifically to the HIF-1α peptide when it is hydroxylated, allowing energy transfer from TR-FRET donor to acceptor (FIG. 1). […] The plates were incubated for 30 minutes at room temperature without rotation. […] TR-FRET assays were performed in triplicate at each concentration of compound and the assays were repeated independently three times.

full-length human PHD1 = target: T2, full-length human PHD1 (Homo sapiens, UniProt Q96KS0); test: TR-FRET assay, enzymatic IC50 against PHD1; type: biochemical; also: 15 nM PHD1
T2 construct: FLAG (N); purchased Active Motif 81064; host or cells: baculovirus expression system
T2 sequence (Q96KS0 whole entry): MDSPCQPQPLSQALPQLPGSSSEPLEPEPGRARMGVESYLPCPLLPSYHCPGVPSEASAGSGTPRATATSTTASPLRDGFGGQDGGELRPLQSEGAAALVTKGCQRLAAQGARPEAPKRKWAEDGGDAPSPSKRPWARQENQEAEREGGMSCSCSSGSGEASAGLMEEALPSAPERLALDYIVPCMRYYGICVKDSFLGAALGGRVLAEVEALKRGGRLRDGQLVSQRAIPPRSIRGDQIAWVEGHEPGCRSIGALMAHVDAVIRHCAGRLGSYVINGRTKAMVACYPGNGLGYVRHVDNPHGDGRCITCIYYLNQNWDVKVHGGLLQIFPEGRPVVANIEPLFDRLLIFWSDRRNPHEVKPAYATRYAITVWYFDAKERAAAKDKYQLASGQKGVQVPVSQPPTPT
Source text: PHD1 was expressed in a baculovirus expression system as the full-length protein (NCBI accession number NP_542770.2) with an N-terminal FLAG tag (molecular weight 44.9 kDa).

T1 sequence (Q9H6Z9 whole entry): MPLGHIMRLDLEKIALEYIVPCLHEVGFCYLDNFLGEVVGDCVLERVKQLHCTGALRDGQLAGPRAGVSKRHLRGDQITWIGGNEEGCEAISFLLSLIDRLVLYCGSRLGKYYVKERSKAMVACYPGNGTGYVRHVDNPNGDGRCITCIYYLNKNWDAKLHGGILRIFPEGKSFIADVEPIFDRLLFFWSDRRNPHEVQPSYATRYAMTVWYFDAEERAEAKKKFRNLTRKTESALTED

`Cc1nn(-c2ccc(S(C)(=O)=O)cn2)c(O)c1-c1ccc(Cl)cc1` [Compound 1, 4-(4-chlorophenyl)-3-methyl-1-(5-(methylsulfonyl)pyridin-2-yl)-1H-pyrazol-5-ol] showed an IC50 (full-length human PHD3) of 100 to 1000 nM, an IC50 (full-length human PHD2) of under 100 nM and an IC50 (full-length human PHD1) of under 100 nM.
For `Cc1cc(C#N)ccc1-c1c(C)nn(-c2ccc(S(C)(=O)=O)cn2)c1O` [Compound 2, 4-(5-hydroxy-3-methyl-1-(5-(methylsulfonyl)pyridin-2-yl)-1H-pyrazol-4-yl)-3-methylbenzonitrile], the IC50 (full-length human PHD3) was under 100 nM, the IC50 (full-length human PHD2) was under 100 nM and the IC50 (full-length human PHD1) was under 100 nM.
Work on `Cc1nn(-c2ccc(S(C)(=O)=O)cn2)c(O)c1-c1ccc(C#N)cc1` [Compound 3, 4-(5-hydroxy-3-methyl-1-(5-(methylsulfonyl)pyridin-2-yl)-1H-pyrazol-4-yl)benzonitrile] yielded an IC50 (full-length human PHD3) of under 100 nM, an IC50 (full-length human PHD2) of under 100 nM and an IC50 (full-length human PHD1) of under 100 nM.
In the case of `CCc1nn(-c2ccc(S(C)(=O)=O)cn2)c(O)c1-c1ccc(C#N)cc1` [Compound 4, 4-(3-ethyl-5-hydroxy-1-(5-(methylsulfonyl)pyridin-2-yl)-1H-pyrazol-4-yl)benzonitrile], the IC50 (full-length human PHD3) is reported as 1000 to 10000 nM, the IC50 (full-length human PHD2) is reported as under 100 nM and the IC50 (full-length human PHD1) is reported as under 100 nM.
`CS(=O)(=O)c1ccc(-n2nc(C3CC3)c(-c3ccc(C#N)cc3)c2O)nc1` [Compound 5, 4-(3-cyclopropyl-5-hydroxy-1-(5-(methylsulfonyl)pyridin-2-yl)-1H-pyrazol-4-yl) benzonitrile] showed an IC50 (full-length human PHD3) of over 10000 nM, an IC50 (full-length human PHD2) of 1000 to 10000 nM and an IC50 (full-length human PHD1) of 100 to 1000 nM.
Compound `Cc1nn(-c2ccc(NS(C)(=O)=O)cn2)c(O)c1-c1ccc(C#N)cc1` [Compound 6, N-(6-(4-(4-cyanophenyl)-5-hydroxy-3-methyl-1H-pyrazol-1-yl)pyridin-3-yl) methanesulfonamide] has an IC50 (full-length human PHD3) of under 100 nM, an IC50 (full-length human PHD2) of under 100 nM and an IC50 (full-length human PHD1) of under 100 nM.
`Cc1nn(-c2ccc(N3CCCC3=O)cn2)c(O)c1-c1ccc(C#N)cc1` [Compound 7, 4-(5-hydroxy-3-methyl-1-(5-(2-oxopyrrolidin-1-yl)pyridin-2-yl)-1H-pyrazol-4-yl)benzonitrile] was tested, and the IC50 (full-length human PHD3) was 100 to 1000 nM, the IC50 (full-length human PHD2) was under 100 nM and the IC50 (full-length human PHD1) was under 100 nM.
`Cc1nn(-c2ccc(S(=O)(=O)c3ccccc3)cn2)c(O)c1-c1ccc(C#N)cc1` [Compound 8, 4-(5-hydroxy-3-methyl-1-(5-(phenylsulfonyl)pyridin-2-yl)-1H-pyrazol-4-yl)benzonitrile] showed an IC50 (full-length human PHD3) of 100 to 1000 nM, an IC50 (full-length human PHD2) of under 100 nM and an IC50 (full-length human PHD1) of under 100 nM.
Work on `CCC(=O)Nc1ccc(-n2nc(C)c(-c3ccc(C#N)cc3)c2O)nc1` [Compound 9, N-(6-(4-(4-cyanophenyl)-5-hydroxy-3-methyl-1H-pyrazol-1-yl)pyridin-3-yl)propionamide] yielded an IC50 (full-length human PHD3) of 100 to 1000 nM, an IC50 (full-length human PHD2) of under 100 nM and an IC50 (full-length human PHD1) of under 100 nM.
With `Cc1nn(-c2ccc(C(=O)C(C)C)cn2)c(O)c1-c1ccc(C#N)cc1` [Compound 10, 4-(5-hydroxy-1-(5-isobutyrylpyridin-2-yl)-3-methyl-1H-pyrazol-4-yl)benzonitrile] the IC50 (full-length human PHD3) was 100 to 1000 nM, the IC50 (full-length human PHD2) was under 100 nM and the IC50 (full-length human PHD1) was under 100 nM.
For `Cc1nn(-c2ccc(S(N)(=O)=O)cn2)c(O)c1-c1ccc(C#N)cc1` [Compound 11, 6-(4-(4-cyanophenyl)-5-hydroxy-3-methyl-1H-pyrazol-1-yl)pyridine-3-sulfonamide], the IC50 (full-length human PHD3) was under 100 nM, the IC50 (full-length human PHD2) was under 100 nM and the IC50 (full-length human PHD1) was under 100 nM.
With `Cc1nn(-c2ccc([S+](C)[O-])cn2)c(O)c1-c1ccc(C#N)cc1` (stereo not shown) [Compound 12, 4-(5-hydroxy-3-methyl-1-(5-(methylsulfinyl)pyridin-2-yl)-1H-pyrazol-4-yl)benzonitrile] the IC50 (full-length human PHD3) was under 100 nM, the IC50 (full-length human PHD2) was under 100 nM and the IC50 (full-length human PHD1) was under 100 nM.
`Cc1nn(-c2ccc(S(C)(=N)=O)cn2)c(O)c1-c1ccc(C#N)cc1` (stereo not shown) [Compound 13, 4-(5-hydroxy-3-methyl-1-(5-(S-methylsulfonimidoyl)pyridin-2-yl)-1H-pyrazol-4-yl)benzonitrile] showed an IC50 (full-length human PHD3) of 100 to 1000 nM, an IC50 (full-length human PHD2) of under 100 nM and an IC50 (full-length human PHD1) of under 100 nM.
In the case of `CN=S(C)(=O)c1ccc(-n2nc(C)c(-c3ccc(C#N)cc3)c2O)nc1` (stereo not shown) [Compound 15, 4-(1-(5-(N,S-dimethylsulfonimidoyl)pyridin-2-yl)-5-hydroxy-3-methyl-1H-pyrazol-4-yl)benzonitrile], the IC50 (full-length human PHD3) is reported as under 100 nM, the IC50 (full-length human PHD2) is reported as under 100 nM and the IC50 (full-length human PHD1) is reported as under 100 nM.
For `Cc1nn(-c2ccc(C(=O)NS(C)(=O)=O)cn2)c(O)c1-c1ccc(C#N)cc1` [Compound 27, 6-(4-(4-cyanophenyl)-5-hydroxy-3-methyl-1H-pyrazol-1-yl)-N-(methylsulfonyl)nicotinamide], the IC50 (full-length human PHD3) was under 100 nM, the IC50 (full-length human PHD2) was under 100 nM and the IC50 (full-length human PHD1) was under 100 nM.
Work on `Cc1nn(-c2ccc(S(=N)(=O)C3CCC3)cn2)c(O)c1-c1ccc(C#N)cc1` (stereo not shown) [Compound 34, 4-(1-(5-(cyclobutanesulfonimidoyl)pyridin-2-yl)-5-hydroxy-3-methyl-1H-pyrazol-4-yl)benzonitrile] yielded an IC50 (full-length human PHD3) of under 100 nM, an IC50 (full-length human PHD2) of under 100 nM and an IC50 (full-length human PHD1) of under 100 nM.
Compound `Cc1nn(-c2ccc(S(=N)(=O)C3CCCC3)cn2)c(O)c1-c1ccc(C#N)cc1` (stereo not shown) [Compound 35, 4-(1-(5-(cyclopentanesulfonimidoyl)pyridin-2-yl)-5-hydroxy-3-methyl-1H-pyrazol-4-yl)benzonitrile] has an IC50 (full-length human PHD3) of under 100 nM, an IC50 (full-length human PHD2) of under 100 nM and an IC50 (full-length human PHD1) of under 100 nM.
`Cc1cc(-n2nc(C)c(-c3ccc(C#N)cc3)c2O)ncc1P(C)(C)=O` [Compound 36, 4-(1-(5-(dimethylphosphoryl)-4-methylpyridin-2-yl)-5-hydroxy-3-methyl-1H-pyrazol-4-yl)benzonitrile] gave an IC50 (full-length human PHD3) of 100 to 1000 nM, an IC50 (full-length human PHD2) of under 100 nM and an IC50 (full-length human PHD1) of under 100 nM.
`Cc1nn(-c2ccc(S(C)(=O)=O)cn2)c(O)c1-c1ccc(C#N)cn1` [Compound 44, 6-(5-hydroxy-3-methyl-1-(5-(methylsulfonyl)pyridin-2-yl)-1H-pyrazol-4-yl)nicotinonitrile] gave an IC50 (full-length human PHD3) of 1000 to 10000 nM, an IC50 (full-length human PHD2) of 100 to 1000 nM and an IC50 (full-length human PHD1) of 100 to 1000 nM.
`Cc1nn(-c2ccc(NS(=O)(=O)CC(=O)O)cn2)c(O)c1-c1ccc(C#N)cc1` [Compound 55, 2-(N-(6-(4-(4-cyanophenyl)-5-hydroxy-3-methyl-1H-pyrazol-1-yl)pyridin-3-yl)sulfamoyl)acetic acid] was tested, and the IC50 (full-length human PHD3) was under 100 nM, the IC50 (full-length human PHD2) was under 100 nM and the IC50 (full-length human PHD1) was under 100 nM.
In the case of `Cc1nn(-c2ccc([S@@](=N)(=O)C3CC3)cn2)c(O)c1-c1ccc(C#N)cc1` [Compound 56, (S)-4-(1-(5-(cyclopropanesulfonimidoyl)pyridin-2-yl)-5-hydroxy-3-methyl-1H-pyrazol-4-yl)benzonitrile], the IC50 (full-length human PHD3) is reported as under 100 nM, the IC50 (full-length human PHD2) is reported as under 100 nM and the IC50 (full-length human PHD1) is reported as under 100 nM.
For `Cc1nn(-c2ccc(S(C)(=O)=NC#N)cn2)c(O)c1-c1ccc(C#N)cc1` (stereo not shown) [Compound 58, N-((6-(4-(4-cyanophenyl)-5-hydroxy-3-methyl-1H-pyrazol-1-yl)pyridin-3-yl)(methyl)(oxo)-λ^6-sulfaneylidene)cyanamide], the IC50 (full-length human PHD3) was 100 to 1000 nM, the IC50 (full-length human PHD2) was under 100 nM and the IC50 (full-length human PHD1) was under 100 nM.
For `Cc1cc(-n2nc(C)c(-c3ccc(C#N)cc3)c2O)ncc1S(=O)(=O)Nc1ccccc1` [Compound 70, 6-(4-(4-cyanophenyl)-5-hydroxy-3-methyl-1H-pyrazol-1-yl)-4-methyl-N-phenylpyridine-3-sulfonamide], the IC50 (full-length human PHD2) was 100 to 1000 nM and the IC50 (full-length human PHD1) was under 100 nM.
`Cc1cc(-n2nc(C)c(-c3ccc(C#N)cc3)c2O)ncc1S(=O)(=O)NC1CC1` [Compound 71, 6-(4-(4-cyanophenyl)-5-hydroxy-3-methyl-1H-pyrazol-1-yl)-N-cyclopropyl-4-methylpyridine-3-sulfonamide] was tested, and the IC50 (full-length human PHD2) was under 100 nM and the IC50 (full-length human PHD1) was under 100 nM.
